The values that follow come from patent US9605002B2, “5,5-heteroaromatic anti-infective compounds” (priority 2012, dated 2017).

Converted amounts (≈) assume the structure as drawn.

Test [1] concerns M. tuberculosis (Mtb) H37Rv. The experiment in a line: Microplate Alamar Blue Assay (MABA), GAS media, replicating Mtb. Format: cell-based, Mycobacterium tuberculosis. The note with it: Mycobacterium tuberculosis; GAS (glycerol-alanine-salt) media, replicating H37Rv; read-out: GAS media: replicating H37Rv Mtb: MIC 90. (In general: The colour change of resazurin is a common sign of viable cells or microbes.)

For test [2], the system named is VERO kidney epithelial cells. The experiment in a line: VERO toxicity assessment. The note with it: Chlorocebus sabaeus, Vero, read-out: VERO: IC50.
Test [3] relates to M. tuberculosis (Mtb) H37Rv. The test is described as follows: Microplate Alamar Blue Assay (MABA), 7H12 media, replicating Mtb. It counts as cell-based. The note with it: Mycobacterium tuberculosis, 7H12 media (no glycerol), read-out: 7H12 media: Replicating H37Rv Mtb: MIC 90.

Consider `Cc1nc2sc(F)cn2c1C(=O)NCc1cccc(Cl)c1` [ND-020056], for which the MIC90 was below 2 µM in test [1] and 2 to 10 µM (≈ 0.648 to 3.24 µg/mL) in test [3]. Further, the IC50 in test [2] was below 32 µM.

Take `Cc1cn2c(C(=O)NCc3ccc(OC(F)(F)F)cc3)c(C)nc2s1` [ND-020006]: the MIC90 in test [1] and in test [3] was below 2 µM throughout. Moreover, the 50% inhibitory concentration (IC50) in test [2] was below 32 µM.

Take `Cc1cn2c(C(=O)Nc3ccc(Oc4ccc(C(F)(F)F)cc4)cc3)c(C)nc2s1` [ND-020040]: the MIC90 in test [1] and in test [3] was below 2 µM each time. The IC50 in test [2] is below 32 µM.

As for `Cc1nc2sc(Cl)cn2c1C(=O)NCc1ccc(N(C)C)cc1` [ND-020022], the MIC90 in test [1] and in test [3] was below 2 µM throughout. Besides, the IC50 in test [2] was below 32 µM.

With `CCc1nc2sc(C)cn2c1C(=O)NCc1ccc(N(C)C)cc1` [ND-020026], the MIC90 in test [1] and in test [3] was below 2 µM throughout. Moreover, the IC50 in test [2] was below 32 µM.

`CCOc1ccc(CNC(=O)c2c(C)nc3sc(C)cn23)cc1` [ND-020028]: the MIC90 in test [1] and in test [3] was below 2 µM throughout. Besides, in test [2], the IC50 was below 32 µM.

For the compound `CCc1nc2sc(C)cn2c1C(=O)NCc1ccc(-c2ccc(C(F)(F)F)cc2)cc1` [ND-020043], the MIC90 was below 2 µM in test [1] and 2 to 10 µM (≈ 0.887 to 4.43 µg/mL) in test [3]. In test [2], the IC50 was below 32 µM.

`COc1cccc(CNC(=O)c2c(C)nc3sc(C)cn23)c1` [ND-009763]: the MIC90 in test [1] and in test [3] was below 2 µM throughout. The half-maximal inhibitory concentration (IC50) in test [2] was below 32 µM.

For the compound `CCc1nc2sc(C)cn2c1C(=O)OC` [ND-009743], the MIC90 in test [1] and in test [3] was below 32 µM throughout. Moreover, the IC50 in test [2] was below 32 µM.

On to `Cc1cn2c(C(=O)NCc3ccc4c(c3)OCC4)c(C)nc2s1` [ND-020018], for which the MIC90 in test [1] and in test [3] was below 2 µM each time. For the same compound, the half-maximal inhibitory concentration (IC50) in test [2] was below 32 µM.

As to `Cc1cn2c(C(=O)NCc3ccc(Oc4ccc(Cl)cc4)cc3)c(C)nc2s1` [ND-020060], the MIC90 in test [1] and in test [3] was below 2 µM each time. Further, the IC50 in test [2] was 10 to 20 µM.

`Cc1cn2c(C(=O)NCc3ccc(N4CCOCC4)c(Cl)c3)c(C)nc2s1` [ND-020035]: the MIC90 in test [1] and in test [3] was below 2 µM each time. For the same compound, the IC50 in test [2] was 20 to 32 µM.

Regarding `Cc1cn2c(C(=O)NCc3ccccc3)c(C)nc2s1` [ND-009749], the MIC90 in test [1] and in test [3] was below 2 µM in each case. In addition, the IC50 in test [2] was below 32 µM.

Turning to `Cc1cn2c(C(=O)NCc3cccc(N4CCC(c5ccc(F)cc5)CC4)c3)c(C)nc2s1` [ND-020045], the MIC90 in test [1] is below 2 µM; in test [3] it was 2 to 10 µM (≈ 0.925 to 4.63 µg/mL). Also, in test [2], the IC50 fell in the range of 20 to 32 µM.

For `Cc1cn2c(C(=O)NCc3ccc(F)c(N4CCOCC4)c3)c(C)nc2s1` [ND-020076], the MIC90 in test [1] and in test [3] was below 2 µM in each case. For the same compound, in test [2], the IC50 is below 32 µM.

For `CCc1nc2sc(Cl)cn2c1C(=O)NCc1ccc(N(C)C)cc1` [ND-020023], the MIC90 in test [1] and in test [3] was below 2 µM each time. In test [2], the IC50 is below 32 µM.

Turning to `Cc1cn2c(C(=O)NCc3cc(F)ccc3F)c(C)nc2s1` [ND-020002], the MIC90 in test [1] and in test [3] was below 2 µM throughout. The IC50 in test [2] is below 32 µM.

Consider `Cc1nc2sc(Cl)cn2c1C(=O)NCc1ccc(N2CCOCC2)c(F)c1` [ND-020039], for which the MIC90 in test [1] and in test [3] was below 2 µM throughout. For the same compound, the IC50 in test [2] was below 32 µM.

As to `Cc1nc2sc(F)cn2c1C(=O)NCc1ccc2c(c1)OCC2` [ND-020061], the MIC90 in test [1] and in test [3] was below 2 µM each time. Also, the IC50 in test [2] is below 32 µM.

For the compound `Cc1cn2c(C(=O)NCc3cccc(N4CCCC4)c3)c(C)nc2s1` [ND-020073], the MIC90 in test [1] and in test [3] was below 2 µM throughout. Besides, the IC50 in test [2] was below 32 µM.

Take `Cc1cn2c(C(=O)NCc3cccc(Oc4ccc(F)cc4)c3)c(C)nc2s1` [ND-020059]: the MIC90 in test [1] and in test [3] was below 2 µM in each case. For the same compound, the IC50 in test [2] fell in the range of 20 to 32 µM.

For `CC1=Nn2c(nc(C)c2C(=O)NCc2ccc(Oc3ccc(F)cc3)cc2)C1` [ND-020050], the results for the MIC90 in test [1] and in test [3] were below 2 µM and 2 to 10 µM (≈ 0.757 to 3.78 µg/mL), respectively. Also, in test [2], the IC50 fell in the range of 20 to 32 µM.

For `Cc1cn2c(C(=O)NCc3ccc(-n4cccn4)cc3)c(C)nc2s1` [ND-020064], the MIC90 in test [1] and in test [3] was below 2 µM throughout. The IC50 in test [2] was 20 to 32 µM.

With `Cc1cn2c(C(=O)NCc3ccc(C(C)(C)C)cc3)c(C)nc2s1` [ND-020031], the MIC90 in test [1] and in test [3] was below 2 µM in each case. Moreover, in test [2], the IC50 was below 32 µM.

`COC(=O)c1c(C)nc2sc(C)c(C)n12` [ND-009744]: the MIC90 in test [1] and in test [3] was below 32 µM each time. For the same compound, in test [2], the IC50 was below 32 µM.

In the case of `Cc1cn2c(C(=O)NCc3cccc(N4CC(C)OC(C)C4)c3)c(C)nc2s1` (stereo not drawn) [ND-020075], the MIC90 in test [1] and in test [3] was below 2 µM throughout. Further, the IC50 in test [2] is below 32 µM.

In the case of `Cc1cn2c(C(=O)Nc3ccc(-c4ccc(C(F)(F)F)cc4)cc3)c(C)nc2s1` [ND-020042], the MIC90 is below 2 µM in test [1] and 2 to 10 µM (≈ 0.831 to 4.15 µg/mL) in test [3]. The IC50 in test [2] is below 32 µM.

Regarding `Cc1cn2c(C(=O)NCc3ccc4ocnc4c3)c(C)nc2s1` [ND-020049], the MIC90 in test [1] and in test [3] was below 2 µM each time. Moreover, in test [2], the IC50 was below 32 µM.

On to `Cc1cn2c(C(=O)NCc3cccc(OC(C)C)c3)c(C)nc2s1` [ND-020030], for which the MIC90 in test [1] and in test [3] was below 2 µM in each case. For the same compound, the IC50 in test [2] was below 32 µM.

Take `Cc1nc2sc(C(F)(F)F)cn2c1C(=O)NCc1ccc(N2CCOCC2)c(F)c1` [ND-020038]: the MIC90 in test [1] was in the range of 2 to 10 µM; in test [3], 2 to 10 µM (≈ 0.885 to 4.42 µg/mL). Besides, in test [2], the IC50 was below 32 µM.

Turning to `Cc1cn2c(C(=O)NCc3ccc(N(C)C)cc3)c(C(F)(F)F)nc2s1` [ND-020025], the MIC90 in test [1] was below 2 µM; in test [3] it was 2 to 10 µM (≈ 0.765 to 3.82 µg/mL). In addition, in test [2], the IC50 was below 32 µM.

On to `Cc1cn2c(C(=O)NCc3ccc(F)cc3)c(C)nc2s1` [ND-020003], for which the values for the MIC90 in test [1] and in test [3] were below 2 µM and 2 to 10 µM (≈ 0.607 to 3.03 µg/mL), respectively. The IC50 in test [2] was below 32 µM.

For the compound `Cc1nn2c(C(=O)NCc3ccc(Oc4ccc(F)cc4)cc3)c(C)nc2s1` [ND-020052], the MIC90 in test [1] is below 2 µM; in test [3] it was 2 to 10 µM (≈ 0.793 to 3.96 µg/mL). The IC50 in test [2] lay within 20 to 32 µM.

Turning to `Cc1cn2c(C(=O)NCc3ccc(-n4cnnc4)cc3)c(C)nc2s1` [ND-020065], the MIC90 in test [1] is 2 to 10 µM; in test [3], 2 to 10 µM (≈ 0.705 to 3.52 µg/mL). For the same compound, the half-maximal inhibitory concentration (IC50) in test [2] was in the range of 20 to 32 µM.

`Cc1cn2c(C(=O)NCc3cccc(F)c3)c(C)nc2s1` [ND-009762]: the MIC90 in test [1] and in test [3] was below 2 µM each time. Besides, in test [2], the IC50 is below 32 µM.

Consider `Cc1nn2c(C(=O)OCc3ccccc3)c(C)nc2s1` [ND-010475], for which the MIC90 was below 2 µM in test [1] and 10 to 20 µM (≈ 2.87 to 5.75 µg/mL) in test [3]. Besides, the IC50 in test [2] is below 32 µM.

As for `Cc1nc2sc(C(F)(F)F)cn2c1C(=O)NCc1ccc2c(c1)OCC2` [ND-020063], the MIC90 was below 2 µM in test [1] and 2 to 10 µM (≈ 0.763 to 3.81 µg/mL) in test [3]. The IC50 in test [2] is below 32 µM.

The term IC50 denotes the concentration at which inhibition is half-maximal.
